Read-outs that look alike come from different tables or passages of the source. Each block holds one molecule with its values, some of them ahead of it.
Assays:
human fetal lung (HFL-1) = assay: MTT viability assay, normal HFL-1; format: cell-based; conditions: HFL1, normal cell line, 24 h, mean ± standard error
Description: (§1) Using concentrations ranging from 0 to 100 μM against PC-3, SKOV-3, and HeLa cancerogenic cell lines, target compounds 4a–l were assessed for their anticancer activities[53] and compared with the commercially available Vinblastine and Doxorubicin. […] The compounds with the greatest cytotoxic activity against the cancerous cell lines PC-3, SKOV-3, and HeLa were 4a–c, 4g, and 4h. […] We selected the cytotoxic active compounds 4a–c, 4g, and 4h to be evaluated against MCF-7/ADR cancerogenic and HFL-1 and WI-38 non-cancerogenic cell lines (Figs. 7, 8 and Table 1).
(§2) The tumor cell lines (PC-3, SKOV-3, and HeLa), resistant cell strains (MCF-7/ADR) and the normal cell lines, (HFL-1, WI-38) were obtained from the American Type Culture Collection (ATCC, Rockville, MD, USA).
(§3) The tumor cell lines were suspended in medium at concentration 5 × 10^4 cells well^−1 in Corning® 96-well tissue culture plates and then incubated for 24 h. The tested compounds with concentrations ranging from 0 to 100 μM were then added into 96-well plates (six replicates) to achieve six different concentrations for each compound. Six vehicle controls with media or 0.5% DMSO were run for each 96 well plate as a control. After incubating for 24 h, the numbers of viable cells were determined by the MTT test[53]. Briefly, the media was removed from the 96 well plates and replaced with 100 μl of fresh culture RPMI 1640 medium without phenol red then 10 μl of the 12 mM MTT stock solution (5 mg of MTT in 1 ml of PBS) to each well including the untreated controls. The 96-well plates were then incubated at 37 °C and 5% CO2 for 4 h. An 85-μl aliquot of the media was removed from the wells, and 50 μl of DMSO was added to each well and mixed thoroughly with the pipette and incubated at 37 °C for 10 min. Then, the optical density was measured at 590 nm with the microplate reader (Sunrise, TECAN, Inc, USA) to determine the number of viable cells and the percentage of viability was calculated as […] where ODt is the mean optical density of wells treated with the tested sample and ODc is the mean optical density of untreated cells. The relation between surviving cells and drug concentration is plotted to get the survival curve of each tumor cell line after treatment with the specified compound. The 50% inhibitory concentration (IC50), the concentration required to cause toxic effects in 50% of intact cells, was estimated from graphic plots of the dose response curve for each concentration.

PC-3 [1] = assay: MTT viability assay, PC-3; format: cell-based; conditions: for IC50: MTT, 24 h incubation, mean ± standard error
Description: as §1, §2, §3

[2] = test system: human diploid fibroblasts (WI-38); assay: MTT viability assay, normal WI-38; format: cell-based; conditions: normal cell line, 24 h, mean ± standard error
Description: as §1, §2, §3

MCF-7/ADR = assay: MTT viability assay, resistant MCF-7/ADR; format: cell-based
Description: as §1, §2, §3

SKOV-3 = assay: MTT viability assay, SKOV-3; format: cell-based; conditions: for IC50: MTT, 24 h incubation, mean ± standard error
Description: as §1, §2, §3

HeLa [3] = assay: MTT viability assay, HeLa; format: cell-based; conditions: 24 h incubation, mean ± standard error
Description: as §1, §2, §3

HepG-2 = test system: HepG-2; set-up: method as in PMID 31586716; conditions: Fig. 5, 9-Br first generation derivatives; cited from earlier work
MCF-7 = test system: MCF-7; set-up: method as in PMID 31586716; conditions: Fig. 5, 9-Br first generation derivatives; cited from earlier work
HCT-116 = test system: HCT-116; set-up: method as in PMID 31586716; conditions: Fig. 5, 9-Br first generation derivatives; cited from earlier work
RPMI 7951 = test system: RPMI 7951; set-up: method as in PMID 34670333; conditions: Fig. 5, 9-OMe second generation derivatives; cited from earlier work
MDA-MB-231 = test system: MDA-MB-231; set-up: method as in PMID 34670333; conditions: Fig. 5, 9-OMe second generation derivatives; cited from earlier work
HeLa [4] = test system: HeLa; set-up: method as in PMID 34670333; conditions: Fig. 5, 9-OMe second generation derivatives; cited from earlier work
A549 = test system: A549; set-up: method as in PMID 34670333; conditions: Fig. 5, 9-OMe second generation derivatives; cited from earlier work
PC-3 [5] = test system: PC-3; set-up: method as in PMID 34670333; conditions: Fig. 5, 9-OMe second generation derivatives; cited from earlier work
MIA PaCa-2 = test system: MIA PaCa-2; set-up: method as in PMID 34670333; conditions: Fig. 5, 9-OMe second generation derivatives; cited from earlier work

melting point: 262 to 263 °C
IC50 (PC-3 [1]; Homo sapiens, PC-3): 0.7 ± 0.4 µM
IC50 (MCF-7/ADR; Homo sapiens, NCI/ADR-RES, MTT, 24 h exposure, mean ± standard error): 19.2 ± 0.7 µM
IC50 (SKOV-3; Homo sapiens, SK-OV-3): 0.6 ± 0.1 µM
IC50 (HeLa [3]; Homo sapiens, HeLa): 0.9 ± 0.4 µM
Compound: N#CC1=C(N)Oc2ccc3ccc(O)cc3c2C1c1ccc([N+](=O)[O-])cc1 (stereo not drawn) [4h, 3-Amino-1-(4-nitrophenyl)-9-hydroxy-1H-benzo[f]chromene-2-carbonitrile]
IC50 (human fetal lung (HFL-1)): 84.9 ± 0.1 µM
times more potent than Vinblastine, PC-3 (PC-3 [1]; ratio of IC50 values, PC-3): 10.7 times
IC50 [2]: 79.4 ± 0.1 µM
activity against MCF-7/ADR cell (in words) (MCF-7/ADR; with regard to Doxorubicin): inactive
times more potency than Doxorubicin, SKOV-3 (SKOV-3; ratio of IC50 values, SKOV-3): 1.8 times
times more potency than Vinblastine, SKOV-3 (SKOV-3; ratio of IC50 values, SKOV-3): 5.3 times

melting point: 260 to 261 °C
IC50 (PC-3 [1]; Homo sapiens, PC-3): 6.6 ± 0.5 µM
IC50 (SKOV-3; Homo sapiens, SK-OV-3): 3.9 ± 0.6 µM
IC50 (HeLa [3]; Homo sapiens, HeLa): 2.5 ± 0.2 µM
Compound: N#CC1=C(N)Oc2ccc3ccc(O)cc3c2C1c1ccc2c(c1)OCO2 (stereo not drawn) [4j, 3-Amino-1-(benzo[d][1,3]dioxol-5-yl)-9-hydroxy-1H-benzo[f]chromene-2-carbonitrile]

Compound: N#CC1=C(N)Oc2ccc3ccc(Br)cc3c2C1c1cccc(Cl)c1Cl (stereo not drawn) [compound 3]
IC50 (HepG-2): 7.59 µM
IC50 (MCF-7): 0.49 µM
IC50 (HCT-116): 0.64 µM

Compound: CC[C@]1(O)C[C@@H]2CN(CCc3c([nH]c4ccccc34)[C@@](C(=O)OC)(c3cc4c(cc3OC)N(C)[C@H]3[C@@](O)(C(=O)OC)[C@H](OC(C)=O)[C@]5(CC)C=CCN6CC[C@]43[C@@H]65)C2)C1 [Vinblastine, reference compound]
IC50 (PC-3 [1]): 7.5 ± 1.3 µM
IC50 (SKOV-3): 3.2 ± 1.2 µM
IC50 (HeLa [3]): 5.7 ± 1.1 µM

Compound: COc1ccc2ccc3c(c2c1)C(c1ccc(Cl)c(Cl)c1)C(C#N)=C(N)O3 (stereo not drawn) [compound 10]
IC50 (RPMI 7951): 5.1 µM
IC50 (MDA-MB-231): 8.4 µM
IC50 (HeLa [4]): 12.9 µM
IC50 (A549): 13.6 µM
IC50 (PC-3 [5]): 14.6 µM
IC50 (MIA PaCa-2): 6.2 µM

Compound: N#CC1=C(N)Oc2ccc3ccc(Br)cc3c2C1c1ccc(Cl)c(Cl)c1 (stereo not drawn) [compound 4]
IC50 (HepG-2): 0.47 µM
IC50 (MCF-7): 7.61 µM
IC50 (HCT-116): 25 µM

melting point: 269 to 279 °C
IC50 (PC-3 [1]; Homo sapiens, PC-3): 3.2 ± 1 µM
IC50 (SKOV-3; Homo sapiens, SK-OV-3): 3.5 ± 0.3 µM
IC50 (HeLa [3]; Homo sapiens, HeLa): 3.3 ± 0.3 µM
Compound: N#CC1=C(N)Oc2ccc3ccc(O)cc3c2C1c1ccc(OCc2ccccc2)cc1 (stereo not drawn) [4i, 3-Amino-1-(4-(benzyloxy)phenyl)-9-hydroxy-1H-benzo[f]chromene-2-carbonitrile]

Compound: COc1ccc2ccc3c(c2c1)C(c1cc(Cl)ccc1Cl)C(C#N)=C(N)O3 (stereo not drawn) [compound 9]
IC50 (RPMI 7951): 5.7 µM
IC50 (MDA-MB-231): 8.1 µM
IC50 (HeLa [4]): 13.2 µM
IC50 (A549): 8.5 µM
IC50 (PC-3 [5]): 11.5 µM
IC50 (MIA PaCa-2): 6.8 µM

melting point: 296 to 297 °C
IC50 (PC-3 [1]; Homo sapiens, PC-3): 10.6 ± 0.5 µM
IC50 (SKOV-3; Homo sapiens, SK-OV-3): 6.3 ± 0.8 µM
IC50 (HeLa [3]; Homo sapiens, HeLa): 76.4 ± 0.7 µM
Compound: N#CC1=C(N)Oc2ccc3ccc(O)cc3c2C1c1cccnc1 (stereo not drawn) [4k, 3-Amino-9-hydroxy-1-(pyridin-3-yl)-1H-benzo[f]chromene-2-carbonitrile]

melting point: 285 to 286 °C
IC50 (PC-3 [1]; Homo sapiens, PC-3): 8.8 ± 0.7 µM
IC50 (SKOV-3; Homo sapiens, SK-OV-3): 35.6 ± 0.4 µM
IC50 (HeLa [3]; Homo sapiens, HeLa): 21.9 ± 1.1 µM
Compound: N#CC1=C(N)Oc2ccc3ccc(O)cc3c2C1c1ccc(Cl)cc1 (stereo not drawn) [4d, 3-Amino-1-(4-chlorophenyl)-9-hydroxy-1H-benzo[f]chromene-2-carbonitrile]

— PMC10981727, “Design, synthesis and bioactivity study on oxygen-heterocyclic-based pyran analogues as effective P-glycoprotein-mediated multidrug resistance in MCF-7/ADR cell” (Scientific Reports, 2024)
